{"source": "patent US20260199282A1", "about": "“METHODS AND COMPOSITIONS FOR IMPROVING DRIVING PERFORMANCE” (priority 2022, published 2026)", "origin": "cited, not measured here", "tested_on": "patients with narcolepsy or idiopathic hypersomnia", "conditions": "modafinil 400 mg/day; ~1.5 hours post-dose; cited from earlier work", "data": [{"smiles": "NC(=O)C[S+]([O-])C(c1ccccc1)c1ccccc1", "note": "(stereo not shown) [modafinil]", "values": [{"measurement": "mean SDLP", "result": "23.6±0.6", "unit": "cm"}]}]}
